We go through three compounds from article PMC7604503, “Cyclic peptides can engage a single binding pocket through highly divergent modes” (Proceedings of the National Academy of Sciences of the …, 2020).

Where a SMILES comes first, the peptide text is derived from it. Bridges are numbered along the chain shown (N, C = ends). Where only a bound is given, the exact number is not on record here.

As usually defined, the Kd is the concentration at which binding is half-saturated.

One assay concerns the target T1, TRIM24(PHD,Bromo.) (Homo sapiens, UniProt O15164).
T1 construct: purchased Eurofins DiscoverX (BROMOscan, BromoMAX)
T1 sequence (O15164 824-1006 limits assumed): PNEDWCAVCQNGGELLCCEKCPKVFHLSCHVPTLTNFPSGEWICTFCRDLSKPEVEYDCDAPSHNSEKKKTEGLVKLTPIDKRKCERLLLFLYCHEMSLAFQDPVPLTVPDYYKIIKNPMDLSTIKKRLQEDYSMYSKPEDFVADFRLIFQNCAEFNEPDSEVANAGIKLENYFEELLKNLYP
Description: BROMOscan competition binding assay (BromoMAX, Eurofins DiscoverX). The conditions noted are these: for Percent Control TRIM24(PHD,Bromo.): compound concentration 1000 nM, lower percentage control = stronger affinity.

Another assay concerns the target T2, BRDT(2) (Homo sapiens, UniProt Q58F21).
T2 construct: BRDT(2); purchased Eurofins DiscoverX (BROMOscan, BromoMAX)
The assay is described as above. To be noted: for Percent Control BRDT(2): compound concentration 1000 nM, lower percentage control = stronger affinity.

For another assay, the target named is T3, PCAF (Homo sapiens, UniProt Q92831).
T3 construct: purchased Eurofins DiscoverX (BROMOscan, BromoMAX)
The assay is described as above. To be noted: for Percent Control PCAF: compound concentration 1000 nM, lower percentage control = stronger affinity.

A further assay addresses T4, BRD2(2) (Homo sapiens, UniProt P25440).
T4 construct: BRD2(2); purchased Eurofins DiscoverX (BROMOscan, BromoMAX)
The assay is described as above. To be noted: for Percent Control BRD2(2): compound concentration 1000 nM, lower percentage control = stronger affinity.

The next assay deals with T5, BRDT(1) (Homo sapiens, UniProt Q58F21).
T5 construct: BRDT(1); purchased Eurofins DiscoverX (BROMOscan, BromoMAX)
Described as above. The conditions noted are these: for Percent Control BRDT(1): compound concentration 1000 nM, lower percentage control = stronger affinity.

The target of another assay is T6, ATAD2A (Homo sapiens, UniProt Q6PL18).
T6 construct: purchased Eurofins DiscoverX (BROMOscan, BromoMAX)
T6 sequence (Q6PL18 1-1390): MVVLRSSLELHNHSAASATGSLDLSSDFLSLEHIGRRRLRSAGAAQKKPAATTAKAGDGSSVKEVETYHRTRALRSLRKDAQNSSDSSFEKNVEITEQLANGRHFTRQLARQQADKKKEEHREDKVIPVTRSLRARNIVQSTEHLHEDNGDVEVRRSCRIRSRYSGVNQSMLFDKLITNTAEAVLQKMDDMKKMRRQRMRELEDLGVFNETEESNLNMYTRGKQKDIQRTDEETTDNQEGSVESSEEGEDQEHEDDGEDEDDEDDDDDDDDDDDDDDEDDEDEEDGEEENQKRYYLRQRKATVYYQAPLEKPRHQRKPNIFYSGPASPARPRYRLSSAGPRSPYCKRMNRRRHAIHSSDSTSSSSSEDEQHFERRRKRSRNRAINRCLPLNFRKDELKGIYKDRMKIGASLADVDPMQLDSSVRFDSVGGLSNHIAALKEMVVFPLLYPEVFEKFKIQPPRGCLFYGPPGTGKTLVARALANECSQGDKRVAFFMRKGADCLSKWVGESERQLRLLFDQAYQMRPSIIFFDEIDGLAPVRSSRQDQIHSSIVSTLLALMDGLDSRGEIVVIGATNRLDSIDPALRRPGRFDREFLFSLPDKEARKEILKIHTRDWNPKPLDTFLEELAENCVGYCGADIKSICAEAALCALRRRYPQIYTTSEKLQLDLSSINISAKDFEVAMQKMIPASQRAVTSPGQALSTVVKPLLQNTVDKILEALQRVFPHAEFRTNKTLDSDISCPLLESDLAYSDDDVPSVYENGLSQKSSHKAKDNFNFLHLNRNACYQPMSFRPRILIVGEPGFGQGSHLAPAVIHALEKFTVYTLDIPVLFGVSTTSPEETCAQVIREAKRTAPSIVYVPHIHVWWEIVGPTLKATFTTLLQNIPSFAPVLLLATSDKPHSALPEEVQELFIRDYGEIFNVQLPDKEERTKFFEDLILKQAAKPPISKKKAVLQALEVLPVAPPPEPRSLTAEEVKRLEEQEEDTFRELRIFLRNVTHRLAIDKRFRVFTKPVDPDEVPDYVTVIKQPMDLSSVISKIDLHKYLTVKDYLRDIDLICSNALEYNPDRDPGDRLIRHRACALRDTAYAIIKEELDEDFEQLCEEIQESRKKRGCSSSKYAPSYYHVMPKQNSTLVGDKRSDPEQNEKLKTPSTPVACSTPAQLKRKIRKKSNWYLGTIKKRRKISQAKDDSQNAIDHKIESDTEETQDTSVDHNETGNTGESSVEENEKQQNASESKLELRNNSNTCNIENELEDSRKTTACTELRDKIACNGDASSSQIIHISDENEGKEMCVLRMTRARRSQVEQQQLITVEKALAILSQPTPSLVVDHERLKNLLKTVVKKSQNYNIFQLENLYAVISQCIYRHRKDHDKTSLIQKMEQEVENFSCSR
The description is as above. The conditions noted are these: for Percent Control ATAD2A: compound concentration 1000 nM, lower percentage control = stronger affinity.

A further assay addresses T7, BRD4(1) (Homo sapiens, UniProt O60885).
T7 construct: BRD4(1); purchased Eurofins DiscoverX (BROMOscan, BromoMAX)
The assay is described as above. The conditions noted are these: for Percent Control BRD4(1): compound concentration 1000 nM, lower percentage control = stronger affinity.

The next assay deals with T8, BRD3-BD1 (Homo sapiens, UniProt Q15059).
T8 construct: BRD3 (BD1: 25-147); Avi tag (biotinylated); made in house; host or cells: E. coli BL21(DE3)
Description: SPR binding of peptides to immobilised biotinylated BET bromodomain. From the text:
(§1) We next assessed the ability of each of the three lead peptides to bind BRD3-BD1. […] To assess selectivity for other BET BDs, we used SPR to determine the binding affinity of each peptide toward the remaining BDs from BRD2, BRD3, and BRD4 (Fig. 1B). […]
(§2) Crude peptides were purified by reverse-phase high-performance liquid chromatography using a Chromolith Prep column (Merck) on a Prominence LC-20AP system (Shimadzu) (Solvent A: 0.1% TFA in H2O, Solvent B: 0.1% TFA in acetonitrile) to >95% purity as determined by mass spectrometry (Fig. S17). Purified peptides were reconstituted in DMSO and concentrations determined from their absorbance at 280 nm in 5% DMSO using predicted extinction coefficients.
(§3) Surface plasmon resonance (SPR)
(§4) Measurements were conducted on a T200 or S200 (GE Healthcare) and data analysed using the Biacore Insight Evaluation Software. Experiments were performed at 4 °C in single cycle kinetics mode. Biotinylated BET bromodomains were immobilised on a CAP chip (GE Healthcare) with a […]
(§5) pH 7.5 was used as the running buffer. […]

The target in a further assay is T9, BRD2-BD2 (Homo sapiens, UniProt P25440).
T9 construct: human BRD2 (BD1: 65-194; BD2: 347-455); Avi tag (biotinylated); made in house; host or cells: E. coli BL21(DE3)
The description is as above.
Text: as §1, §2, §3, §4, §5

[1] abbreviates: 4 C, geometric mean and SD of two to five measurements.
The mark [2] stands for this setting: gray boxed value: no reproducible signals observed at the concentrations used.

For `CC[C@H](C)[C@@H]1NC(=O)[C@H]([C@@H](C)O)NC(=O)[C@H](CCCCN)NC(=O)[C@H](Cc2c[nH]c3ccccc23)NC(=O)CSC[C@@H](C(N)=O)NC(=O)[C@H](CCC(N)=O)NC(=O)[C@H](CCCCNC(C)=O)NC(=O)[C@H]([C@@H](C)O)NC(=O)[C@H](CCCNC(=N)N)NC(=O)[C@H](Cc2c[nH]c3ccccc23)NC(=O)[C@H]([C@@H](C)O)NC(=O)[C@H](CCCCNC(C)=O)NC(=O)CNC(=O)[C@H](CCCCNC(C)=O)NC1=O` [3.1B] ({CH2CO}-WKTIK(Ac)GK(Ac)TWRTK(Ac)QC-NH2; thioether N-14), on TRIM24(PHD,Bromo.), the “Percent Control TRIM24(PHD,Bromo.)” value is recorded as 91%. On BRDT(2), the “Percent Control BRDT(2)” value is recorded as 100%. Also, the “Percent Control PCAF” value on PCAF is recorded as 94%. The “Percent Control BRD2(2)” value at BRD2(2) is 100%. Further, the “Percent Control BRDT(1)” value on BRDT(1) came to 0%. Also, the “Percent Control ATAD2A” value at ATAD2A was determined as 92%. Besides, the “Percent Control BRD4(1)” value on BRD4(1) turned out to be 0.2%. In addition, the Kd on BRD3-BD1 (setting [1]) was 0.49 ± 0.63 nM; at BRD2-BD2 (setting [2]) it was over 10000 nM.

`CC[C@H](C)[C@@H]1NC(=O)[C@H](Cc2c[nH]c3ccccc23)NC(=O)[C@H](Cc2c[nH]c3ccccc23)NC(=O)CSC[C@@H](C(N)=O)NC(=O)CNC(=O)[C@H](CCCCNC(C)=O)NC(=O)[C@H](CCCCN)NC(=O)[C@H](C(C)C)NC(=O)[C@H](CCCCNC(C)=O)NC(=O)[C@@H]2CCCN2C(=O)[C@H]([C@@H](C)CC)NC1=O` [3.1C] ({CH2CO}-WWIIPK(Ac)VKK(Ac)GC-NH2; thioether N-11): the “Percent Control TRIM24(PHD,Bromo.)” value on TRIM24(PHD,Bromo.) was 94%. In addition, the “Percent Control BRDT(2)” value on BRDT(2) turned out to be 4.9%. Further, the “Percent Control PCAF” value on PCAF worked out at 96%. The “Percent Control BRD2(2)” value at BRD2(2) was determined as 0.35%. The “Percent Control BRDT(1)” value at BRDT(1) is 0%. The “Percent Control ATAD2A” value on ATAD2A was determined as 92%. Besides, the “Percent Control BRD4(1)” value on BRD4(1) was determined as 0%. Besides, the figures for the Kd on BRD3-BD1 (setting [1]) and on BRD2-BD2 (setting [1]) were 0.08 ± 0.049 nM and 9.2 ± 25 nM, respectively.

Regarding `CC[C@H](C)[C@H](NC(=O)[C@H](CCCNC(=N)N)NC(=O)[C@H](CCCCNC(C)=O)NC(=O)[C@H](CCCNC(=N)N)NC(=O)[C@H](CC(C)C)NC(=O)[C@@H]1CSCC(=O)N[C@@H](Cc2c[nH]c3ccccc23)C(=O)N[C@@H](CCCCNC(C)=O)C(=O)NCC(=O)N[C@@H](Cc2ccc(O)cc2)C(=O)N[C@@H](CC(C)C)C(=O)N1)C(=O)N[C@@H](CCC(N)=O)C(=O)N[C@@H](CCCNC(=N)N)C(=O)N[C@H](C(=O)N[C@@H](Cc1ccc(O)cc1)C(=O)N[C@@H](CC(N)=O)C(N)=O)[C@@H](C)O` [4.2C] ({CH2CO}-WK(Ac)GYLCLRK(Ac)RIQRTYN-NH2; thioether N-6), the percent of control binding at 1 µM was 98% on TRIM24(PHD,Bromo.), 92% on BRDT(2), 100% on PCAF and 85% on ATAD2A. In addition, the remaining binding at 1 µM on BRD2(2) (read-out: Percent Control BRD2(2)) was 17%; at BRDT(1) (read-out: Percent Control BRDT(1)), 85%; at BRD4(1) (read-out: Percent Control BRD4(1)), 96%. Moreover, the Kd at BRD3-BD1 (setting [2]) was over 10000 nM; on BRD2-BD2 (setting [1]) it was 22 ± 26 nM.
